# Assay results as given in EP0969854B1, “INHIBITION OF SIGNAL TRANSDUCTION BY THE BINDING OF NON-PHOSPHORYLATED COMPOSITIONS” (GEORGETOWN UNIVERSITY, priority 1996, dated 2006).
# Bridge positions count the residues as written; N and C are the ends. Ends that are not written are not given here.
# Experiments:
# [1] = tested on: Grb2 SH2 domain; assay: Surface plasmon resonance (Biacore): inhibition of GST-Grb2 binding to immobilised SHC phosphopeptide; details: for inhibition of Grb2 binding to the SHC phosphopeptide: peptide at 50 µM; for inhibiting activity: peptide at 500 µM
# Source text: The G1 peptide (CELYENVGMYC [disulfide bonded]) was used as an inhibitor of the interaction of the Grb2 with a SHC phosphopeptide in surface plasmon resonance (Biacore) experiments. The SHC phosphopeptide was attached to the solid surface by incorporation of a biotin at the N-terminus as described in Pelicci, G., et al., "The motogenic and mitogenic responses to HGF are amplified by the Shc adaptor protein," Oncogene, 10: 1631-1638, 1995. This biotinylated phospho-SHC peptide was then bound to the streptavidin on the surface of SA5 chips (Pharmacia-Biacore). The binding was conducted at a 2nM and 5 µl/minute for 10 minutes. The peptides were mixed with 200 nM GST-Grb2 in HBS buffer (Pharmacia Biacore) and allowed to bind for 10 minutes at a flow rate of 5 µl/minute. The Ru change at equilibrium was calculated and the percent of control (no added peptide) binding was calculated.
# The G1 peptide was compared to SHC phosphopeptide (DDPSpYVNVQ), G1C-S (SELYENVGMYS), which is similar to G1 but wherein the cysteines are replaced with serines, and SHC control peptide (DDPSYVNVQ), in which the tyrosine is not phosphorated.
# Songyang et al. Mol. Cell Biol., 14:2777-2785 (1994). The requirement of these amino acids in the G1 peptide sequence was tested by synthesizing peptides with alanine substitutions at these positions. G1.4Y-A contains an alanine substitution in place of the tyrosine at position 4 (CELAENVGMYC) and G16N-A contains an alanine substitution for the asparagine at position 6 (CELYEAVGMYC). […] The binding of peptide to the Grb2 SH2 domain was measured by surface plasmon resonance (Pharmacia Biacore). The percent inhibition was calculated by comparison of the Rueq in the presence of peptide with the Rueq with no inhibiting peptide present.
# [2] = tested on: cell proliferation; details: cited from earlier work
# [3] = target: intact GST-Grb2 fusion protein (UniProt P62993); assay: SPR competition in solution, SHC phosphopeptide and G1 for GST-Grb2 compared directly (Figure 6)
inhibition of Grb2 binding to the SHC phosphopeptide [1],inhibiting activity [1],fold difference in affinity against SHC phosphopeptide [3],Molecule,block of cell proliferation [2]
No inhibition,limited activity,–,"CELYEAVGMYC [G16N-A, alanine substitution for the asparagine at position 6]",–
–,–,–,AcpYEEIE,lack of effect
No inhibition,limited activity,–,"CELAENVGMYC [G1.4Y-A, alanine substitution in place of the tyrosine at position 4]",–
–,–,10 fold,CELYENVGMYC (disulfide 1-11) [G1 peptide (… [disulfide bonded])],–
